{
  "source": "paper PMC3187749",
  "about": "“Discovery of Diverse Small Molecule Chemotypes with Cell-Based PKD1 Inhibitory Activity” (PLoS ONE, 2011)",
  "key": {"recombinant human PKD1": {"biological_target": "T1, recombinant human PKD1 (Homo sapiens, UniProt Q15139)", "T1 construct": "His; purchased Millipore (Billerica, MA)", "T1 sequence (Q15139 1-912)": "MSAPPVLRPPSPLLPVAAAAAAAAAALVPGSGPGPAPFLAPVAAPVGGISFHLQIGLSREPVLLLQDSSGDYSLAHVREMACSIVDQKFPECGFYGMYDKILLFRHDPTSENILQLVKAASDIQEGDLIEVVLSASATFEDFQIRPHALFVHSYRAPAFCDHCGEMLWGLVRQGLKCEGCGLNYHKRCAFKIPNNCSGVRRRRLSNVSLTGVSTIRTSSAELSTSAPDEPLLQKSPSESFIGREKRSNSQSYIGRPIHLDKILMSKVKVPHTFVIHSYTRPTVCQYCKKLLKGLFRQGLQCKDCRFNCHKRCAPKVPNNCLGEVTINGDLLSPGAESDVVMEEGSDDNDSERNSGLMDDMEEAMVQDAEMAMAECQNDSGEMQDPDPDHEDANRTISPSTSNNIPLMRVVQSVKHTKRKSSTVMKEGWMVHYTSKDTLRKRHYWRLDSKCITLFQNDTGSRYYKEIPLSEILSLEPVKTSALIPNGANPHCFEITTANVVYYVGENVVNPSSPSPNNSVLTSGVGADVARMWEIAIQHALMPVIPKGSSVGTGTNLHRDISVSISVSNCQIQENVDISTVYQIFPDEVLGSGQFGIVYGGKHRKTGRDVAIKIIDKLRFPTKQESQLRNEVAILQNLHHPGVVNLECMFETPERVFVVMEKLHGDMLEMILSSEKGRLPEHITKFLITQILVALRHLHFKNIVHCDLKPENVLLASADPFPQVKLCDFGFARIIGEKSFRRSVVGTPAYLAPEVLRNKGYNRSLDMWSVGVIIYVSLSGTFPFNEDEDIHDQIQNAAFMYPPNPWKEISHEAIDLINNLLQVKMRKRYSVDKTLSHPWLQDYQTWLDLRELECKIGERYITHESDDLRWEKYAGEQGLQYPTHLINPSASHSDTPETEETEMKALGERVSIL", "test": "In vitro radiometric PKD1 kinase assay", "assay_type": "biochemical", "conditions": "radiometric PKD1 kinase assay; mean ± range or SD of 2–4 independent experiments; read-out: In vitro PKD1 IC50", "experimental": "(§1) Kinase reactions were initiated with the addition of ATP (50 µM ATP, 1.0 µCi γ-^33P-ATP; Perkin Elmer, Boston, MA) and incubated for 20 min at 30°C. Twenty-five µL of the reaction was spotted onto Whatman P81 filter paper (Whatman Inc., Clifton, NJ). Filter papers were then washed three times in 0.5% phosphoric acid, air-dried, and counted using an LS6500 multi-purpose scintillation counter (Beckman Coulter, Fullerton, CA). IC50 determinations were performed using GraphPad Prism software 5.0. Radiometric PKD2 and PKD3 in vitro kinase assays were performed as previously described."}, "PKD3": {"biological_target": "T2, PKD3 (Homo sapiens, UniProt O94806)", "T2 sequence (O94806 1-890)": "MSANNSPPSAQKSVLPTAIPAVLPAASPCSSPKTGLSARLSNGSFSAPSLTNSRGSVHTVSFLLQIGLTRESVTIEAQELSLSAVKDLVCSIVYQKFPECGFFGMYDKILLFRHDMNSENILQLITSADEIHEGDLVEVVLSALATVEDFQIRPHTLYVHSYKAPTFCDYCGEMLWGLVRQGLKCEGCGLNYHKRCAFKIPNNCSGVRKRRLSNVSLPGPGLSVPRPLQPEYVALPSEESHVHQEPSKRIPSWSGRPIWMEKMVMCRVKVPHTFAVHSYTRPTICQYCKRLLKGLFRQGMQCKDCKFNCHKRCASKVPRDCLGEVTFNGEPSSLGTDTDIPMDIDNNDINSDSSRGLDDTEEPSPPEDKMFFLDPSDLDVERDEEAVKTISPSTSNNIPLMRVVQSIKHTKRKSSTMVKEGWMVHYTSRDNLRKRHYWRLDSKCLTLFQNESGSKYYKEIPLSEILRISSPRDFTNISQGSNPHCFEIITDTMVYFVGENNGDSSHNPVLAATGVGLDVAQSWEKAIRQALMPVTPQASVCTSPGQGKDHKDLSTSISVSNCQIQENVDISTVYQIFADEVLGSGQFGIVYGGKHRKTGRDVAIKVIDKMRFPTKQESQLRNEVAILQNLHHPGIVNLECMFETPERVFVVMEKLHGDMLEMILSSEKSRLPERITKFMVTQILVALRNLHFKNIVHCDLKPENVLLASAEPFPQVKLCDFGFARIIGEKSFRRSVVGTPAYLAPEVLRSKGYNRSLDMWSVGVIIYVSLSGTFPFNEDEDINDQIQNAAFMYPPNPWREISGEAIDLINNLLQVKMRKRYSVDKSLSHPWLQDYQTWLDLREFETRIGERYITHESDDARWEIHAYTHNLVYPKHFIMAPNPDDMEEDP", "test": "Radiometric PKD3 in vitro kinase assay", "assay_type": "biochemical", "conditions": "preliminary in vitro data", "experimental": "as §1"}, "[1]": {"biological_target": "T3, endogenous PKD1 (Ser916 phosphorylation) in LNCaP prostate cancer cells (Homo sapiens, UniProt Q15139)", "T3 construct": "phosphorylation of endogenously expressed PKD1 Ser^916; endogenous in cells; host or cells: LNCaP prostate cancer cells", "T3 sequence (Q15139 1-912)": "T1 sequence (Q15139 1-912)", "test": "Western blot of PMA-induced phospho-Ser916-PKD1 in LNCaP cells", "assay_type": "cell-based", "experimental": "Briefly, prostate cancer cells (LNCaP) were exposed to test compounds. Cells were lysed in buffer (200 mM Tris-HCl, pH 7.4, 100 µM 4-(2-aminoethyl) benzenesulfonyl fluoride, 1 mM EGTA, and 1% Triton X-100) and cell lysates were subjected to SDS-PAGE then electrotransferred to nitrocellulose membranes. Membranes were blocked with 5% nonfat milk in Tris-buffered saline. Membranes were probed with a primary antibody then followed by a secondary anti-mouse or anti-rabbit secondary antibody conjugated to horseradish peroxidase (1∶1000, Bio-Rad). Bands were visualized by the enhanced chemiluminescence Western blotting detection system (Amersham Biosciences). The primary antibodies included p-S916-PKD1 antibody (Millipore) and GAPDH (Enzo Life Sciences, Plymouth Meeting, PA).\n[…] Whole cell lysates were immunoblotted for phosphorylated Ser^916-PKD1 with GAPDH serving as a loading control."}, "AKT": {"test_system": "AKT", "test": "IMAP-based AKT counter screen", "assay_type": "biochemical", "conditions": "concentrations up to 50 µM", "excerpt": "It was also gratifying that, in general, our novel cell active PKD1 inhibitors appeared to be less promiscuous than PKD1 inhibitors having minimal to no cellular PKD1 inhibitory activity (Table 1). For example, CIDs 755673 and 1893668 display additional confirmed activity in six and seven, respectively, PubChem bioassays while CID 2011756 has confirmed activity in only one additional PubChem bioassay. […] In contrast, the remaining chemotypes registered as confirmed actives in 2–43 additional bioassays (Table 1). Additional chemical similarity searching, focusing on our four novel cell-active PKD1 inhibitory chemotypes, using MetaDrug also supports a comparative lack of promiscuity of these compounds."}},
  "data": [
    {"smiles": "O=C(Nc1ccc(CN2CCOCC2)cc1)c1ccc(-c2cccc(Cl)c2)o1", "note": "[CID 2011756, 5-(3-chlorophenyl)-N-[4-(morpholin-4-ylmethyl)phenyl]furan-2-carboxamide]", "values": [
      {"measurement": "IC50", "setting": "recombinant human PKD1", "result": "3.2 ± 0.1", "unit": "µM"},
      {"measurement": "IC50", "setting": "PKD3", "result": "0.7 ± 0.2", "unit": "µM"},
      {"measurement": "EC50", "setting": "[1]; LNCaP cells, PMA stimulation, n = 3, read-out: Cellular EC50 (phospho-Ser916-PKD1)", "result": "10 ± 0.7", "unit": "µM"},
      {"measurement": "Concentration dependence of inhibition of PMA-induced endogenous PKD1 activity", "setting": "[1]; LNCaP cells, Western blot", "result": "concentration-dependent inhibition"},
      {"measurement": "inhibition at 50 µM", "setting": "[1]; LNCaP, read-out: Inhibition of phosphorylation of Ser916-PKD1", "result": "> 50", "unit": "%"},
      {"measurement": "AKT kinase inhibition", "setting": "AKT", "result": "no kinase inhibition"}
    ]}
  ]
}
